Experimental data published in US20240101546A1, “HETEROARYL-ACETYLENES, PHARMACEUTICAL COMPOSITIONS THEREOF, AND THEIR THERAPEUTIC APPLICATIONS” (Eubulus Biotherapeutics Inc., priority 2020, published 2024).

Tested on: lung cancer cell line NCI-H82
Test: Cell proliferation assay, NCI-H82 (CELL-TITER GLO)
Assay type: cell-based
Conditions: Homo sapiens, NCI-H82, 72 h, NCI-H82 cells, 72 h incubation, cell viability by CELL-TITER GLO, top concentration 1 μM; read-out: EC50, Inhibition of NCl-H82 Cell Proliferation
Outline: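 NCI-H82 cells, 1,000 per well in RPMI1640, were treated after overnight plating with a 3-fold dilution series from 1 μM. Viability read by CellTiter-Glo luminescence after 72 h. EC50 derived from the curves.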

Row | SMILES | EC50
1 | C#Cc1nnc(NC(=O)N[C@@H](CO)c2ccc(-c3cccc4ncsc34)cc2)s1 [Compound A120, (R)-1-(1-(4-(Benzo[d]thiazol-7-yl)phenyl)-2-hydroxyethyl)-3-(5-ethynyl-1,3,4-thiadiazol-2-yl)urea] | ≤ 200 nM
2 | C#Cc1nc(NC(=O)N[C@@H](CO)c2ccc(-c3cccc4ncsc34)cc2)ns1 [Compound A122, (R)-1-(1-(4-(Benzo[d]thiazol-7-yl)phenyl)-2-hydroxyethyl)-3-(5-ethynyl-1,2,4-thiadiazol-3-yl)urea] | 200 to 1000 nM
3 | C#Cc1ccnc(NC(=O)N[C@@H](CO)c2ccc(-c3cccc(N4CCCC4)n3)cc2)n1 [Compound A123, (R)-1-(4-Ethynylpyrimidin-2-yl)-3-(2-hydroxy-1-(4-(6-(pyrrolidin-1-yl)pyridin-2-yl)phenyl)ethyl)urea] | ≤ 200 nM
4 | C#Cc1cccc(NC(=O)N[C@@H](CO)c2ccc(-c3cccc(N4CCCC4)n3)cc2)n1 [Compound A124, (R)-1-(6-Ethynylpyridin-2-yl)-3-(2-hydroxy-1-(4-(6-(pyrrolidin-1-yl)pyridin-2-yl)phenyl)ethyl)urea] | 200 to 1000 nM
5 | C#Cc1nccc(NC(=O)N[C@@H](CO)c2ccc(-c3cccc(N4CCCC4)n3)cc2)n1 [Compound A125, (R)-1-(2-Ethynylpyrimidin-4-yl)-3-(2-hydroxy-1-(4-(6-(pyrrolidin-1-yl)pyridin-2-yl)phenyl)ethyl)urea] | ≤ 200 nM
6 | C#Cc1nc(NC(=O)N[C@@H](CO)c2ccc(N3CC(F)(F)C3)cc2)cs1 [Compound A126, (R)-1-(1-(4-(3,3-Difluoroazetidin-1-yl)phenyl)-2-hydroxyethyl)-3-(2-ethynyl-thiazol-4-yl)urea] | ≤ 200 nM
7 | C#Cc1nc(NC(=O)N[C@@H](COC(N)=O)c2ccc(N3CC(F)(F)C3)cc2)cs1 [Compound A127, (R)-2-(4-(3,3-Difluoroazetidin-1-yl)phenyl)-2-(3-(2-ethynylthiazol-4-yl)ureido)-ethyl carbamate] | ≤ 200 nM
8 | C#Cc1nc(NC(=O)N[C@@H](CO)c2ccc(N3CCCC3)cc2)cs1 [Compound A128, (R)-1-(2-Ethynylthiazol-4-yl)-3-(2-hydroxy-1-(4-(pyrrolidin-1-yl)phenyl)ethyl)-urea] | ≤ 200 nM
9 | C#Cc1nc(NC(=O)N[C@@H](CO)c2ccc(N3CCCC3=O)cc2)cs1 [Compound A129, (R)-1-(2-Ethynylthiazol-4-yl)-3-(2-hydroxy-1-(4-(2-oxopyrrolidin-1-yl)phenyl)-ethyl)urea] | ≤ 200 nM
10 | C#Cc1nc(NC(=O)N[C@@H](CO)c2ccc(N3CCC(F)(F)C3)cc2)cs1 [Compound A130, (R)-1-(1-(4-(3,3-Difluoropyrrolidin-1-yl)phenyl)-2-hydroxyethyl)-3-(2-ethynyl-thiazol-4-yl)urea] | ≤ 200 nM
11 | C#Cc1nc(NC(=O)N[C@@H](CO)c2ccc(N3CCCCC3=O)cc2)cs1 [Compound A131, (R)-1-(2-Ethynylthiazol-4-yl)-3-(2-hydroxy-1-(4-(2-oxopiperidin-1-yl)phenyl)-ethyl)urea] | ≤ 200 nM
12 | C#Cc1nc(NC(=O)N[C@@H](CO)c2ccc(-n3ccccc3=O)cc2)cs1 [Compound A132, (R)-1-(2-Ethynylthiazol-4-yl)-3-(2-hydroxy-1-(4-(2-oxopyridin-1(2H)-yl)phenyl)-ethyl)urea] | ≤ 200 nM
13 | C#Cc1nc(NC(=O)N[C@@H](CO)c2ccc(N3CCOCC3)cc2)cs1 [Compound A133, (R)-1-(2-Ethynylthiazol-4-yl)-3-(2-hydroxy-1-(4-morpholinophenyl)ethyl)urea] | ≤ 200 nM
14 | C#Cc1nc(NC(=O)N[C@@H](CO)c2ccc(N3CCOCC3=O)cc2)cs1 [Compound A134, (R)-1-(2-Ethynylthiazol-4-yl)-3-(2-hydroxy-1-(4-(3-oxomorpholino)phenyl)-ethyl)urea] | 200 to 1000 nM
15 | C#Cc1nc(NC(=O)N[C@@H](CO)c2ccc(N3CCCCC3)cn2)cs1 [Compound A135, (R)-1-(2-Ethynylthiazol-4-yl)-3-(2-hydroxy-1-(5-(piperidin-1-yl)pyridin-2-yl)-ethyl)urea] | ≤ 200 nM
16 | C#Cc1nc(NC(=O)N[C@@H](CO)c2ccc(N3CCCC(F)(F)C3)cn2)cs1 [Compound A136, (R)-1-(1-(5-(3,3-Difluoropiperidin-1-yl)pyridin-2-yl)-2-hydroxyethyl)-3-(2-ethynylthiazol-4-yl)urea] | ≤ 200 nM
17 | C#Cc1nc(NC(=O)N[C@@H](CO)c2ccc(N3CCCCCC3=O)cc2)cs1 [Compound A138, (R)-1-(2-Ethynylthiazol-4-yl)-3-(2-hydroxy-1-(4-(2-oxoazepan-1-yl)phenyl)-ethyl)urea] | ≤ 200 nM
18 | C#Cc1nc(NC(=O)N[C@@H](CO)c2ccc(N3CCCc4c3cnn4C)cc2)cs1 [Compound A139, (R)-1-(2-Ethynylthiazol-4-yl)-3-(2-hydroxy-1-(4-(1-methyl-1,5,6,7-tetrahydro-4H-pyrazolo[4,3-b]pyridin-4-yl)phenyl)ethyl)urea] | ≤ 200 nM
19 | C#Cc1nc(NC(=O)N[C@@H](CO)c2ccc(N3CCCc4nn(C)cc43)cc2)cs1 [Compound A140, (R)-1-(2-Ethynylthiazol-4-yl)-3-(2-hydroxy-1-(4-(2-methyl-2,5,6,7-tetrahydro-4H-pyrazolo[4,3-b]pyridin-4-yl)phenyl)ethyl)urea] | ≤ 200 nM
20 | C#Cc1nc(NC(=O)N[C@@H](CO)c2ccc(C3=C(C#N)CCCC3)cc2)cs1 [Compound A141, (R)-1-(1-(6′-Cyano-2′,3′,4′,5′-tetrahydro-[1,1′-biphenyl]-4-yl)-2-hydroxyethyl)-3-(2-ethynylthiazol-4-yl)urea] | ≤ 200 nM
21 | C#Cc1nc(NC(=O)N[C@@H](CO)c2ccc(C3=C(C#N)CCCC3)cn2)cs1 [Compound A142, (R)-1-(1-(5-(2-Cyanocyclohex-1-en-1-yl)pyridin-2-yl)-2-hydroxyethyl)-3-(2-ethynylthiazol-4-yl)urea] | ≤ 200 nM
22 | C#Cc1nc(NC(=O)N[C@@H](CO)c2ccc(C3CCCCN3C(C)=O)cc2)cs1 (stereo partly drawn) [Compound A143, 1-((1R)-1-(4-(1-Acetylpiperidin-2-yl)phenyl)-2-hydroxyethyl)-3-(2-ethynyl-thiazol-4-yl)urea] | ≤ 200 nM
23 | C#Cc1nc(NC(=O)N[C@@H](CO)C2CCN(c3ccccc3C#N)CC2)cs1 [Compound A150, (R)-1-(1-(1-(2-Cyanophenyl)piperidin-4-yl)-2-hydroxyethyl)-3-(2-ethynylthiazol-4-yl)urea] | ≤ 200 nM
24 | C#Cc1nc(NC(=O)N[C@H](CO)C2CCN(c3ccccc3C#N)CC2)cs1 [Compound A151, (S)-1-(1-(1-(2-Cyanophenyl)piperidin-4-yl)-2-hydroxyethyl)-3-(2-ethynylthiazol-4-yl)urea] | ≤ 200 nM

The next lines start with the values.

Row | EC50 | SMILES
25 | ≤ 200 nM | C#Cc1nc(NC(=O)N[C@@H](CO)c2ccc(N3CCCCCC3)cc2)cs1 [Compound A137, (R)-1-(1-(4-(Azepan-1-yl)phenyl)-2-hydroxyethyl)-3-(2-ethynylthiazol-4-yl)urea]
26 | 200 to 1000 nM | C#Cc1nc(NC(=O)N[C@H](CO)C(=O)N2CC(c3ccccc3C#N)C2)cs1 [Compound A144, (R)-1-(1-(3-(2-Cyanophenyl)azetidin-1-yl)-3-hydroxy-1-oxopropan-2-yl)-3-(2-ethynylthiazol-4-yl)urea]
27 | 200 to 1000 nM | C#Cc1nc(NC(=O)N[C@@H](CO)C(=O)N2CC(c3ccccc3C#N)C2)cs1 [Compound A145, (S)-1-(1-(3-(2-Cyanophenyl)azetidin-1-yl)-3-hydroxy-1-oxopropan-2-yl)-3-(2-ethynylthiazol-4-yl)urea]
28 | 200 to 1000 nM | C#Cc1nc(NC(=O)N[C@H](CO)C(=O)N2CCC(c3ccccc3C#N)CC2)cs1 [Compound A146, (R)-1-(1-(4-(2-Cyanophenyl)piperidin-1-yl)-3-hydroxy-1-oxopropan-2-yl)-3-(2-ethynylthiazol-4-yl)urea]
29 | 200 to 1000 nM | C#Cc1nc(NC(=O)N[C@@H](CO)C(=O)N2CCC(c3ccccc3C#N)CC2)cs1 [Compound A147, (S)-1-(1-(4-(2-Cyanophenyl)piperidin-1-yl)-3-hydroxy-1-oxopropan-2-yl)-3-(2-ethynylthiazol-4-yl)urea]
30 | ≤ 200 nM | C#Cc1nc(NC(=O)N[C@H](CO)C(=O)N2CCN(c3ccccc3C#N)CC2)cs1 [Compound A148, (R)-1-(1-(4-(2-Cyanophenyl)piperazin-1-yl)-3-hydroxy-1-oxopropan-2-yl)-3-(2-ethynylthiazol-4-yl)urea]
31 | ≤ 200 nM | C#Cc1nc(NC(=O)N[C@@H](CO)C(=O)N2CCN(c3ccccc3C#N)CC2)cs1 [Compound A149, (S)-1-(1-(4-(2-Cyanophenyl)piperazin-1-yl)-3-hydroxy-1-oxopropan-2-yl)-3-(2-ethynylthiazol-4-yl)urea]
32 | ≤ 200 nM | C#Cc1nc(NC(=O)N[C@@H](CO)C(=O)N2CCC3(CC2)CC3)cs1 [Compound A152, (S)-1-(2-Ethynylthiazol-4-yl)-3-(3-hydroxy-1-oxo-1-(6-azaspiro[2.5]octan-6-yl)propan-2-yl)urea]
33 | ≤ 200 nM | C#Cc1nc(NC(=O)N[C@@H](CO)C(=O)N2CCC3(CCC3)CC2)cs1 [Compound A153, (S)-1-(2-Ethynylthiazol-4-yl)-3-(3-hydroxy-1-oxo-1-(7-azaspiro[3.5]nonan-7-yl)propan-2-yl)urea]
34 | ≤ 200 nM | C#Cc1nc(NC(=O)N[C@@H](CO)C(=O)N2CCC3(CCCC3)CC2)cs1 [Compound A154, (S)-1-(2-Ethynylthiazol-4-yl)-3-(3-hydroxy-1-oxo-1-(8-azaspiro[4.5]decan-8-yl)propan-2-yl)urea]
35 | ≤ 200 nM | C#Cc1nc(NC(=O)N[C@H](CO)C(=O)N2CCC3(CCCC3)CC2)cs1 [Compound A155, (R)-1-(2-Ethynylthiazol-4-yl)-3-(3-hydroxy-1-oxo-1-(8-azaspiro[4.5]decan-8-yl)propan-2-yl)urea]
36 | ≤ 200 nM | C#Cc1ncc(NC(=O)N[C@@H](CO)C(=O)N2CCC3(CCCC3=O)CC2)s1 [Compound A156, (S)-1-(2-Ethynylthiazol-5-yl)-3-(3-hydroxy-1-oxo-1-(1-oxo-8-azaspiro[4.5]decan-8-yl)propan-2-yl)urea]
